Read-outs that look alike come from different tables or passages of the source.
Tested on: subjects with MDD at imminent risk for suicide
[1] = TEAE leading to study discontinuation, double-blind phase, safety analysis set
[2] = adverse events, follow up phase, safety (FU) analysis set
[3] = double-blind phase, safety analysis set
[4] = serious adverse events, follow up phase, safety (FU) analysis set
[5] = treatment-emergent serious adverse events, double-blind phase, safety analysis set

Structure (SMILES): CN[C@]1(c2ccccc2Cl)CCCCC1=O [Esketamine 84 mg]
- Dizziness [1]: 1 (2.9%) no. subjects (%)
- Dysgeusia [1]: 1 (2.9%) no. subjects (%)
- Dyspnea [1]: 1 (2.9%) no. subjects (%)
- Gastrointestinal disorders [1]: 1 (2.9%) no. subjects (%)
- Nausea [1]: 1 (2.9%) no. subjects (%)
- Nervous system disorders [1]: 2 (5.7%) no. subjects (%)
- Panic attack [1]: 0 no. subjects (%)
- Psychiatric disorders [1]: 2 (5.7%) no. subjects (%)
- Respiratory, thoracic and mediastinal disorders [1]: 1 (2.9%) no. subjects (%)
- Total no. subjects with TEAE leading to study discontinuation [1]: 5 (14.3%) no. subjects (%)
- Ventricular extrasystoles [1]: 1 (2.9%) no. subjects (%)
- Abdominal pain [2]: 1 (3.7%) no. subjects (%)
- Abdominal tenderness [2]: 1 (3.7%) no. subjects (%)
- Aphthous ulcer [2]: 0 no. subjects (%)
- Back pain [2]: 1 (3.7%) no. subjects (%)
- Bronchitis [2]: 0 no. subjects (%)
- Cellulitis [2]: 0 no. subjects (%)
- Cogwheel rigidity [2]: 1 (3.7%) no. subjects (%)
- Contusion [2]: 1 (3.7%) no. subjects (%)
- Depressed mood [2]: 0 no. subjects (%)
- Depression [2]: 1 (3.7%) no. subjects (%)
- Diarrhea [2]: 1 (3.7%) no. subjects (%)
- Dizziness [2]: 1 (3.7%) no. subjects (%)
- Drug hypersensitivity [2]: 0 no. subjects (%)
- Dry mouth [2]: 2 (7.4%) no. subjects (%)
- Dysgeusia [2]: 1 (3.7%) no. subjects (%)
- Ear and labyrinth disorders [2]: 0 no. subjects (%)
- Ear infection [2]: 1 (3.7%) no. subjects (%)
- Epistaxis [2]: 1 (3.7%) no. subjects (%)
- Flank pain [2]: 1 (3.7%) no. subjects (%)
- Folliculitis [2]: 0 no. subjects (%)
- Gastrointestinal disorders [2]: 6 (22.2%) no. subjects (%)
- Headache [2]: 2 (7.4%) no. subjects (%)
- Immune system disorders [2]: 0 no. subjects (%)
- Infections and infestations [2]: 3 (11.1%) no. subjects (%)
- Influenza [2]: 0 no. subjects (%)
- Injury, poisoning and procedural complications [2]: 2 (7.4%) no. subjects (%)
- Insomnia [2]: 3 (11.1%) no. subjects (%)
- Intentional self-injury [2]: 1 (3.7%) no. subjects (%)
- Loss of consciousness [2]: 1 (3.7%) no. subjects (%)
- Meniere's disease [2]: 0 no. subjects (%)
- Metabolism and nutrition disorders [2]: 0 no. subjects (%)
- Migraine [2]: 1 (3.7%) no. subjects (%)
- Musculoskeletal and connective tissue disorders [2]: 2 (7.4%) no. subjects (%)
- Musculoskeletal chest pain [2]: 1 (3.7%) no. subjects (%)
- Musculoskeletal pain [2]: 1 (3.7%) no. subjects (%)
- Nasal congestion [2]: 1 (3.7%) no. subjects (%)
- Nasopharyngitis [2]: 1 (3.7%) no. subjects (%)
- Nausea [2]: 0 no. subjects (%)
- Neck pain [2]: 1 (3.7%) no. subjects (%)
- Nervous system disorders [2]: 6 (22.2%) no. subjects (%)
- Night sweats [2]: 1 (3.7%) no. subjects (%)
- Panic reaction [2]: 0 no. subjects (%)
- Pelvic pain [2]: 1 (3.7%) no. subjects (%)
- Pharyngitis [2]: 2 (7.4%) no. subjects (%)
- Polydipsia [2]: 0 no. subjects (%)
- Procedural pain [2]: 0 no. subjects (%)
- Psychiatric disorders [2]: 5 (18.5%) no. subjects (%)
- Rash [2]: 0 no. subjects (%)
- Renal and urinary disorders [2]: 0 no. subjects (%)
- Renal failure [2]: 0 no. subjects (%)
- Reproductive system and breast disorders [2]: 1 (3.7%) no. subjects (%)
- Respiratory, thoracic and mediastinal disorders [2]: 2 (7.4%) no. subjects (%)
- Restlessness [2]: 1 (3.7%) no. subjects (%)
- Road traffic accident [2]: 1 (3.7%) no. subjects (%)
- Sedation [2]: 1 (3.7%) no. subjects (%)
- Self-injurious ideation [2]: 0 no. subjects (%)
- Sexual dysfunction [2]: 0 no. subjects (%)
- Skin and subcutaneous tissue disorders [2]: 1 (3.7%) no. subjects (%)
- Somnolence [2]: 0 no. subjects (%)
- Suicidal ideation [2]: 1 (3.7%) no. subjects (%)
- Suicide attempt [2]: 0 no. subjects (%)
- Tooth impacted [2]: 0 no. subjects (%)
- Toothache [2]: 0 no. subjects (%)
- Total no. subjects with adverse events [2]: 13 (48.1%) no. subjects (%)
- Tremor [2]: 2 (7.4%) no. subjects (%)
- Upper respiratory tract infection [2]: 1 (3.7%) no. subjects (%)
- Viral upper respiratory tract infection [2]: 0 no. subjects (%)
- Vomiting [2]: 1 (3.7%) no. subjects (%)
- Vulvovaginal mycotic infection [2]: 1 (3.7%) no. subjects (%)
- 1 or more serious TEAE [3]: 4 (11.4%) no. subjects (%)
- TEAE (total no. subjects with TEAE) [3]: 33 (94.3%) no. subjects (%)
- TEAE leading to death [3]: 0 no. subjects (%)
- TEAE leading to drug withdrawn [3]: 5 (14.3%) no. subjects (%)
- Possibly related TEAE (double-blind phase, safety analysis set, relationship possible, probable, very likely): 29 (82.9%) no. subjects (%)
- Cellulitis [4]: 0 no. subjects (%)
- Infections and infestations [4]: 0 no. subjects (%)
- Psychiatric disorders [4]: 1 (3.7%) no. subjects (%)
- Suicidal ideation [4]: 1 (3.7%) no. subjects (%)
- Suicide attempt [4]: 0 no. subjects (%)
- Total no. subjects with a serious adverse event [4]: 1 (3.7%) no. subjects (%)
- Agitation [5]: 1 (2.9%) no. subjects (%)
- Depressive symptom [5]: 1 (2.9%) no. subjects (%)
- Psychiatric disorders [5]: 4 (11.4%) no. subjects (%)
- Suicidal ideation [5]: 2 (5.7%) no. subjects (%)
